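Values below derive from 48-hour exposures of cells grown in 96-well plates, with endpoints linearly interpolated between the two concentrations bracketing the appropriate inhibition level. Here, GI50 denotes the concentration required for 50% inhibition of growth. TGI: concentration producing complete growth inhibition.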
How the values were obtained:
Experiment in all cases: inhibition of tumour cell growth, NCI panel, 48 h
RPMI-8226 leukemia = tested on: RPMI-8226 leukemia
ACHN renal = tested on: ACHN renal
A498 renal = tested on: A498 renal
CCRF-CEM leukemia = tested on: CCRF-CEM leukemia
A549 NSCLC = tested on: A549 NSCLC
SNB-75 CNS = tested on: SNB-75 CNS
OVCAR-3 ovarian = tested on: OVCAR-3 ovarian
SF-295 CNS = tested on: SF-295 CNS
MDA-N = tested on: MDA-N

| SMILES | GI50 (RPMI-8226 leukemia) | TGI (RPMI-8226 leukemia) | GI50 (ACHN renal) | TGI (ACHN renal) | GI50 (A498 renal) | TGI (A498 renal) | GI50 (CCRF-CEM leukemia) | TGI (CCRF-CEM leukemia) | GI50 (A549 NSCLC) | TGI (A549 NSCLC) | GI50 (SNB-75 CNS) | TGI (SNB-75 CNS) | GI50 (OVCAR-3 ovarian) | TGI (OVCAR-3 ovarian) | GI50 (SF-295 CNS) | TGI (SF-295 CNS) | TGI (MDA-N) |
| --- | --- | --- | --- | --- | --- | --- | --- | --- | --- | --- | --- | --- | --- | --- | --- | --- | --- |
| COC12C=C/C(=C(/C(=O)OCc3ccncn3)C(=O)CCCCCCCCC3(OC)C=C/C(=C(/C(=O)OCc4ccncn4)C(=O)CCCCCCCC1)O3)O2 | 0.263 µM | 0.995 µM | 0.302 µM | 1.14 µM | 0.252 µM | 0.833 µM | 0.251 µM | 1.55 µM | 0.363 µM | 1.49 µM | 1.52 µM | 17.7 µM | 0.317 µM | 0.903 µM | 0.221 µM | 0.703 µM |  |
| CC(=O)NC1(C)CCC(C(C)(C)NC(C)=O)CC1 (stereo not given) |  | > 100 µM |  | > 100 µM |  | > 100 µM |  | > 100 µM |  | > 100 µM |  | > 100 µM |  | > 100 µM |  | > 100 µM | > 100 µM |
| COc1cc2c(cc1OC)C1CN3C(=O)CCC3C(O)C1c1cc(OC)c(OC)cc1-2 (stereo not given) |  | > 100 µM |  | > 100 µM |  | > 100 µM |  | > 100 µM |  | > 100 µM |  | > 100 µM |  |  |  | > 100 µM | > 100 µM |
| Cc1cc(O)c(C(C)C)cc1NC(=O)Nc1cccc2ccccc12 |  |  |  | 27.8 µM |  | 26.5 µM |  |  |  | 45.4 µM |  |  |  | 40.2 µM |  | 28.2 µM | 27.6 µM |
| Cc1c(CNc2ccc(Cl)c(C(=O)NC(CC(=O)O)C(=O)O)c2)ccc2nc(N)nc(N)c12 (stereo not given) |  |  |  | > 1000 µM | 24.9 µM | 680 µM |  | > 1000 µM |  | > 1000 µM | 122 µM | > 1000 µM | 16.8 µM | > 1000 µM |  | > 1000 µM | > 1000 µM |
| Cc1ccccc1N=C(N)NC#N |  | > 100 µM |  | > 100 µM |  |  |  | > 100 µM |  | > 100 µM |  | > 100 µM |  |  |  |  | > 100 µM |
| Cc1ccc(S(=O)(=O)NC(=O)NC(Cc2c[nH]c3ccccc23)C(=O)O)cc1 (stereo not given) |  | > 100 µM |  |  |  |  |  | > 100 µM |  | > 100 µM |  | > 100 µM |  |  |  | > 100 µM | > 100 µM |
| COc1c2occc2c(OC)c2c(=O)c(S(=O)(=O)NC(=O)Nc3ccc(Cl)cc3)coc12 |  | > 10 µM |  | > 10 µM |  | > 10 µM |  | > 10 µM |  | > 10 µM |  |  |  | > 10 µM |  | > 10 µM | > 10 µM |
| COCn1c2ccc(OC(C)=O)cc2c2c(=O)oc(C)nc21 |  | > 100 µM |  | > 100 µM |  | > 100 µM |  | > 100 µM |  | > 100 µM |  | > 100 µM |  |  |  | > 100 µM | > 100 µM |
| O=S(=O)(c1cc(Cl)ccc1Cl)N1CCN(S(=O)(=O)c2cc(Cl)ccc2Cl)CC1 |  |  |  | > 100 µM |  | > 100 µM |  |  |  | > 100 µM |  | > 100 µM |  | > 100 µM |  | > 100 µM | > 100 µM |
| CCNC(=S)N/N=C/c1cc(OC)ccc1O |  |  |  | > 100 µM |  |  |  | > 100 µM |  | > 100 µM |  | > 100 µM |  | > 100 µM |  | > 100 µM | > 100 µM |
| O=C(NCC1Nc2ccncc2S(=O)(=O)N1)c1ccc(Br)cc1 (stereo not given) |  | > 100 µM |  | > 100 µM |  | > 100 µM |  |  |  | > 100 µM |  | > 100 µM |  | > 100 µM |  | > 100 µM | 58.6 µM |
| CCCCC/C=C1/CC(CO)(COC(=O)CC(C(C)C)C(C)C)OC1=O (stereo not given) |  |  |  | 24.7 µM |  | 26.5 µM |  | > 100 µM |  | 27.1 µM |  | 22.6 µM |  | 32.7 µM |  | 19.5 µM | 17 µM |
| O=C1C=Cc2c(Cl)sc(Cl)c21 |  | 4.02 µM |  | 3.16 µM |  | 16.1 µM |  | 1.36 µM |  | > 90.6 µM |  | 13.1 µM |  |  |  | 27.1 µM |  |
| Cc1nc2c(cc1C(=O)NN)c(=O)n(C)c(=O)n2C |  | > 100 µM |  | > 100 µM |  |  |  | > 100 µM |  | > 100 µM |  | > 100 µM |  | > 100 µM |  | > 100 µM | > 100 µM |
| CN(C(=O)C12C3C4(C(=O)O)C1(C(=O)N(C)C(C)(C)C)C1C2(C(=O)O)C3(C(=O)N(C)C(C)(C)C)C14C(=O)N(C)C(C)(C)C)C(C)(C)C (stereo not given) |  |  |  | > 100 µM |  | > 100 µM |  | > 100 µM |  | > 100 µM |  |  |  | > 100 µM |  | > 100 µM | > 100 µM |
| O=C1COC(c2ccccc2O)=NN1CCCN1CCCC1 |  | > 100 µM |  | > 100 µM |  | > 100 µM |  |  |  | > 100 µM |  | > 100 µM |  | > 100 µM |  | > 100 µM | > 100 µM |
| O=C(CCc1cccc(O)c1)NCCc1cccc(O)c1 |  |  |  | > 100 µM |  | > 100 µM |  | > 100 µM |  | > 100 µM |  |  |  | > 100 µM |  | > 100 µM | > 100 µM |
| CC1=NN(c2cccc(Cl)c2)C2(C1)C(Cl)C(=O)N2c1nc2ccccc2s1 (stereo not given) |  | 41.6 µM |  | > 100 µM |  | > 100 µM |  |  |  | 76.2 µM |  | 67.1 µM |  | 66.5 µM |  | 98.1 µM | > 100 µM |
| COc1cc(Oc2nc3ccccc3nc2C(=O)O)cc(OC)c1OC |  | > 100 µM |  | > 100 µM |  | > 100 µM |  | > 100 µM |  | > 100 µM |  | > 100 µM |  | > 100 µM |  | > 100 µM |  |
| CCSSCS(C)(=O)=O |  |  |  | > 100 µM |  | 96.2 µM |  | > 100 µM |  | > 100 µM |  | 72.6 µM |  | 99.2 µM |  | > 100 µM | > 100 µM |
| CCCSc1cc(Cl)c(C)cc1S(=O)(=O)n1ccnc1OCCCN(C)C |  |  |  | > 100 µM |  | > 100 µM |  | > 100 µM |  | > 100 µM |  |  |  | > 100 µM |  | > 100 µM | > 100 µM |
| N/C(=N\N=C\c1ccc2c(c1)OCO2)NO |  | 56.9 µM |  | 47.9 µM |  | 56.5 µM |  | 51.1 µM |  | > 100 µM |  |  |  | 59.1 µM |  | > 100 µM | > 100 µM |
| CC1(C)O[C@H](C(=O)O)[C@@H](C(=O)O)O1 |  | > 100 µM |  | > 100 µM |  | > 100 µM |  | > 100 µM |  | > 100 µM |  | > 100 µM |  |  |  | > 100 µM | > 100 µM |
| CC(C)CC(=O)NC(Nc1ccc(S(=O)(=O)Nc2ncccn2)cc1)(C(F)(F)F)C(F)(F)F |  | > 100 µM |  | > 100 µM |  |  |  | > 100 µM |  | > 100 µM |  | > 100 µM |  | > 100 µM |  | > 100 µM | > 100 µM |

Source: PubChem BioAssay (NCI)
